According to patent publication US12344614B2, “Benzodiazepine derivatives as GABA a GAMMA1 PAM” (Hoffmann-La Roche Inc., priority 2021, dated 2025):
Where two headings read alike, the source gives them in different places.

Assays:
h-GABA-A α2β2γ1 receptor = h-GABA-A α2β2γ1 receptor (Homo sapiens (Human), UniProt P47869+Q8N1C3); assay: Two-electrode voltage clamp electrophysiology in Xenopus oocytes expressing GABAA receptors; assay type: cell-based; conditions: for Efficacy (GABA) %: % modulation of GABA EC20 = 100*(Fold increase−1), compound at 30-fold Ki α2β2γ1; for Fold increase h-GABA-A α2β2γ1 oocyte @ 30-fold Ki: Xenopus oocytes, GABA EC20, test compound at approx. 30-fold its Ki α2β2γ1
Description: Xenopus laevis oocytes at maturation stages V-VI were used for the expression of cloned mRNA encoding GABAA receptor subunits. Oocytes ready for RNA micro-injection were bought from Ecocyte, Castrop-Rauxel, Germany and stored in modified Barth's medium (composition in mM: NaCl 88, KCl 1, NaHCO3 2.4, HEPES 10, MgSO4 0.82, CaNO3 0.33, CaCl2 0.33, pH=7.5) at 20° C. until the experiment.
Oocytes were plated in 96-well plates for microinjection using the Roboinject automated instrument (MultiChannelSystems, Reutlingen, Germany). Approximately 50 nL of an aqueous solution containing the RNA transcripts for the subunits of the desired GABAA receptor subtype was injected into each oocyte. […] Oocytes were kept in modified Barth's medium (composition in mM: NaCl 88, KCl 1, NaHCO3 4, HEPES 10, MgSO4 0.82, CaNO3 0.33, CaCl, 0.33, pH=7.5) at 20° C. until the experiment.
Electrophysiological experiments were performed using the Roboocyte instrument (MultiChannelSystems, Reutlingen, Germany) on days 3 to 5 after the micro-injection of mRNA. During the experiment the oocytes were constantly superfused by a solution containing (in mM) NaCl 90, KCl 1, HEPES 5, MgCl2 1, CaCl2 1 (pH 7.4). Oocytes were impaled by two glass microelectrodes (resistance: 0.5-0.8 MΩ) which were filled with a solution containing KCl 1M+K-acetate 1.5 M and voltage-clamped to −80 mV. The recordings were performed at room temperature using the Roboocyte two-electrode voltage clamp system (Multichannelsystem). After an initial equilibration period of 1.5 min GABA was added for 1.5 min at a concentration evoking approximately 20% of a maximal current response (EC2O). After another rest interval of 2.5 min GABA was again added evoking a response of similar amplitude and shape. […] Current traces were recorded at a digitization rate of 10 Hz during and shortly before and after the GABA application.
Each compound and concentration was tested on at least 3 oocytes. Different oocytes were used for different compound concentrations.
For the analysis, the digitized current traces of the first and second GABA response were superimposed and, if necessary, rescaled to equal maximal amplitudes. The ratio between the two responses during the time interval of test compound application was calculated point by point. The extremum of the resulting “ratio trace” was taken as the efficacy (“Fold increase”) of the compound expressed as “% modulation of GABA EC20” (100*(Fold increase−1)).

[1] = biological target: human GABAA α1β3γ2 receptor (Homo sapiens (Human), UniProt P14867+P18507); assay: Radioligand binding assay, competition for [3H]Flumazenil, HEK293F cells; conditions: for γ2/γ1 Selectivity Ratio: Ki α1β3γ2 (nM)/Ki α2β2γ1 (nM); for LogSel: Log[Ki α1β3γ2 (nM)/Ki α2β2γ1 (nM)]
Description: The affinity of compounds at GABAA γ2 subunit-containing receptors was measured by competition for [^3H]Flumazenil (81.1 Ci/mmol; Roche) binding to HEK293F cells expressing human (transiently transfected) receptors of composition α1β3γ2.
Harvested pellets from HEK293F cells expressing the different GABAA γ2 receptor subtypes were resuspended in Mannitol Buffer pH 7.2-7.4 and processed as described above for the cells expressing the GABAA γ1 subunit-containing receptors.
Assays were incubated to equilibrium for 1 hour at 4° C. and harvested onto GF/C uni-filters (Packard) by filtration using a Packard harvester and washing with ice-cold wash buffer (50 mM Tris; pH 7.5). After anhydrousing, filter-retained radioactivity was detected by liquid scintillation counting. Ki values were calculated using Excel-Fit (Microsoft) and are the means of two determinations.

[2] = biological target: human GABAA α1β2γ1 receptor (Homo sapiens (Human), UniProt P14867+Q8N1C3); assay: Radioligand binding assay, competition for [3H]RO7239181, membranes from HEK293F cells

Row | SMILES | Efficacy (GABA) % (h-GABA-A α2β2γ1 receptor) [%] | Fold increase h-GABA-A α2β2γ1 oocyte @ 30-fold Ki (h-GABA-A α2β2γ1 receptor) | Ki [1] [µM] | γ2/γ1 Selectivity Ratio [1] | LogSel [1] | Ki [2] [µM] | Ki ([1]; read-out: Ki h-GABAA α1β3γ2, [3H]Flumazenil 1 nM, HEK293F membranes, 1 hour at 4° C., mean of two determinations) [µM] | Ki ([2]; read-out: Ki h-GABAA α1β2γ1, [3H]RO7239181 20-30 nM, HEK293F membranes, 1 hour at 4° C., mean of two determinations) [µM]
1 | COC1CN(C(=O)c2nc3n(n2)-c2ccc(Cl)c(Cl)c2C(c2cc(O)ccc2F)=NC3)C1 [Example 7, [7,8-dichloro-6-(2-fluoro-5-hydroxy-phenyl)-4H-[1,2,4]triazolo[1,5-a][1,4]benzodiazepin-2-yl]-(3-methoxyazetidin-1-yl)methanone] | 65 | 1.65 | 0.0346 | 15.6 | 1.19 |  |  | 
2 | Cc1nnc2n1-c1ccc(Cl)c(Cl)c1C(c1c(F)ccc(O)c1F)=NC2 [Example 13, 3-(7,8-dichloro-1-methyl-4H-[1,2,4]triazolo[4,3-a][1,4]benzodiazepin-6-yl)-2,4-difluoro-phenol] | 72 | 1.72 | 0.0726 | 18.8 | 1.28 |  |  | 
3 | O=c1ccn2c(n1)CN=C(c1cc(O)ccc1F)c1c-2ccc(Cl)c1Cl [Example 6, 8,9-dichloro-7-(2-fluoro-5-hydroxy-phenyl)-5H-pyrimido[1,2-a][1,4]benzodiazepin-3-one] | 92 | 1.92 | 0.0467 | 21.4 | 1.33 |  |  | 
4 | Cc1cn2c(n1)[C@H](C)N=C(c1nc(O)ccc1F)c1c-2ccc(C(F)(F)F)c1Cl [Example 28, 6-[(4S)-7-chloro-2,4-dimethyl-8-(trifluoromethyl)-4H-imidazo[1,2-a][1,4]benzodiazepin-6-yl]-5-fluoro-pyridin-2-ol] | 68 | 1.68 | 4.08 | 772.7 | 2.89 | 0.0199 |  | 
5 | Cc1nnc2n1-c1ccc(Cl)c(Cl)c1C(c1cc(O)ccc1F)=N[C@H]2C [Example 4, 4-fluoro-3-[(4S)-7,8-dichloro-1,4-dimethyl-4H-[1,2,4]triazolo[4,3-a][1,4]benzodiazepin-6-yl]phenol] | 33 | 1.33 | 0.0817 | 41.1 | 1.61 | 0.00335 |  | 
6 | CN1C(=O)CN=C(c2cc(O)ccc2F)c2c1ccc(Cl)c2Cl [Example 1, 6,7-dichloro-5-(2-fluoro-5-hydroxy-phenyl)-1-methyl-3H-1,4-benzodiazepin-2-one] | 90 | 1.90 | 0.0287 |  | 1.1 | 0.0029 | 0.0287 | 0.0029
7 | Cc1nnc2n1-c1ccc(C(F)(F)F)c(Cl)c1C(c1cc(O)ccc1F)=N[C@H]2C [Example 17, 4-fluoro-3-[(4S)-7-chloro-1,4-dimethyl-8-(trifluoromethyl)-4H-[1,2,4]triazolo[4,3-a][1,4]benzodiazepin-6-yl]phenol] | 77 | 1.77 | 0.0688 | 39.3 | 1.59 |  |  | 
8 | C[C@@H]1N=C(c2nc(O)ccc2F)c2c(ccc(C(F)(F)F)c2Cl)-n2cc(C(=O)N3CCC3)nc21 [Example 30, azetidin-1-yl-[(4S)-7-chloro-6-(3-fluoro-6-hydroxy-2-pyridyl)-4-methyl-8-(trifluoromethyl)-4H-imidazo[1,2-a][1,4]benzodiazepin-2-yl]methanone] | 120 | 2.20 | 13 | 280.8 | 2.45 |  |  | 
9 | Cc1nc2n(n1)-c1ccc(C(F)(F)F)c(Cl)c1C(c1nc(O)ccc1Cl)=N[C@H]2C [Example 29, 5-chloro-6-[(4S)-7-chloro-2,4-dimethyl-8-(trifluoromethyl)-4H-[1,2,4]triazolo[1,5-a][1,4]benzodiazepin-6-yl]pyridin-2-ol] | 70 | 1.70 | 12 | 1557.5 | 3.19 |  |  | 
10 | O=c1ccn2c(n1)CN=C(c1c(F)ccc(O)c1F)c1c-2ccc(Cl)c1Cl [Example 14, 8,9-dichloro-7-(2,6-difluoro-3-hydroxy-phenyl)-5H-pyrimido[1,2-a][1,4]benzodiazepin-3-one] | 68 | 1.68 | 0.0746 | 16.0 | 1.20 |  |  | 
11 | COC1CN(C(=O)c2ncn3c2CN=C(c2cc(O)ccc2F)c2c-3ccc(C(F)(F)F)c2Cl)C1 [Example 15, [7-chloro-6-(2-fluoro-5-hydroxy-phenyl)-8-(trifluoromethyl)-4H-imidazo[1,5-a][1,4]benzodiazepin-3-yl]-(3-methoxyazetidin-1-yl)methanone] | 80 | 1.80 | 0.121 | 28.9 | 1.46 |  |  | 
12 | Cc1cnc2n1-c1ccc(C(F)(F)F)c(Cl)c1C(c1nc(O)ccc1F)=N[C@H]2C [Example 23, 6-[(4S)-7-chloro-1,4-dimethyl-8-(trifluoromethyl)-4H-imidazo[1,2-a][1,4]benzodiazepin-6-yl]-5-fluoro-pyridin-2-ol] | 68 | 1.68 | 8.01 | 902.4 | 2.96 |  |  | 
13 | C[C@@H]1N=C(c2c(F)ccc(O)c2F)c2c(ccc(Cl)c2Cl)-n2ccc(=O)nc21 [Example 18, (5S)-8,9-dichloro-7-(2,6-difluoro-3-hydroxy-phenyl)-5-methyl-5H-pyrimido[1,2-a][1,4]benzodiazepin-3-one] | 57 | 1.57 | 0.255 | 38.7 | 1.59 |  |  | 
14 | Oc1ccc(F)c(C2=NCc3nncn3-c3ccc(C(F)(F)F)c(Cl)c32)c1 [Example 10, 3-[7-chloro-8-(trifluoromethyl)-4H-[1,2,4]triazolo[4,3-a][1,4]benzodiazepin-6-yl]-4-fluoro-phenol] | 73 | 1.73 | 0.0899 | 86.5 | 1.94 |  |  | 
15 | CN1C(=O)CN=C(c2c(F)ccc(O)c2F)c2c1ccc(Cl)c2Cl [Example 12, 6,7-dichloro-5-(2,6-difluoro-3-hydroxy-phenyl)-1-methyl-3H-1,4-benzodiazepin-2-one] | 99 | 1.99 | 0.371 | 175.4 | 2.24 |  |  | 
16 | C[C@@H]1N=C(c2nc(O)ccc2F)c2c(ccc(C(F)(F)F)c2Cl)-n2c1nc1c2CCC1 [Example 24, 6-[(10S)-6-chloro-10-methyl-5-(trifluoromethyl)-1,9,12-triazatetracyclo[9.6.0.02,7.013,17]heptadeca-2(7),3,5,8,11,13(17)-hexaen-8-yl]-5-fluoro-pyridin-2-ol] | 64 | 1.64 | 4.19 | 634.3 | 2.80 |  |  | 
